Key:
Type in all cases: in vivo
[1] = test system: Mikania cordata (MIKCO, African mile-a-minute); experiment: Postemergence field weed control, MIKCO; conditions: 28 DAA
Method: (§1) Evaluation of Postemergence Herbicidal Activity of Mixtures under Field Conditions Methodology
(§2) Trial sites were located in various countries around the world, including Brazil, United States, Hungary, Indonesia and Malaysia, in non-crop and perennial tree crop plantations. Trials were conducted using normal small plot R&D trials using standard research methodology. Trial plots were between 2 to 4 meters (m) wide by 3 to 10 m long. All treatments were applied using a randomized complete block or factorial trial design with 3-4 replications per treatment. The trial sites had naturally occurring populations of weeds. The weed spectrum included, but was not limited to, scarlet pimpernel (Anagallis arvensis L., ANGAR), tropical carpetgrass (Axonopus compressus, AXOCO), Canada thistle (Cirsium arvense (L.) Scop., CIRAR), calopo (Calopogonium mucunoides, CLOMU), Bengal dayflower (Commelina benghalensis L., COMBE), field bindweed (Convolvus arvensis, CONAR), horseweed (Conyza canadensis (L.) Cronq., ERICA), kochia (Kochia scoparia (L.) Schrad., KCHSC), common mallow (Malva neglecta Wallr., MALNE), African mile-a-minute (Mikania cordata (Burm. f.) B. L., MIKCO), slender panicgrass (Ottochloa nodosa, OTTNO), paspalum (Paspalum conjugatum Bergius, PASCO), wild buckwheat (Polygonum convolvulus L., POLCO) and stinging nettle (Urtica dioica L., URTDI). […]

[2] = test system: Commelina benghalensis L. (COMBE, Bengal dayflower); experiment: Postemergence field weed control, COMBE; conditions: 28 DAA
Method: as §1, §2

[3] = test system: Cirsium arvense (L.) Scop. (CIRAR, Canada thistle); experiment: Postemergence field weed control, CIRAR
Method: as §1
(§3) Trial sites were located in various countries around the world, including Brazil, United States, Hungary, Indonesia and Malaysia, in non-crop and perennial tree crop plantations. Trials were conducted using normal small plot R&D trials using standard research methodology. Trial plots were between 2 to 4 meters (m) wide by 3 to 10 m long. All treatments were applied using a randomized complete block or factorial trial design with 3-4 replications per treatment. The trial sites had naturally occurring populations of weeds. The weed spectrum included, but was not limited to, scarlet pimpernel (Anagallis arvensis L., ANGAR), tropical carpetgrass (Axonopus compressus, AXOCO), Canada thistle (Cirsium arvense (L.) Scop., CIRAR), calopo (Calopogonium mucunoides, CLOMU), Bengal dayflower (Commelina benghalensis L., COMBE), field bindweed (Convolvus arvensis, CONAR), horseweed (Conyza canadensis (L.) Cronq., ERICA), kochia (Kochia scoparia (L.) Schrad., KCHSC), common mallow (Malva neglecta Wallr., MALNE), African mile-a-minute (Mikania cordata (Burm. f.) B. L., MIKCO), slender panicgrass (Ottochloa nodosa, OTTNO), paspalum (Paspalum conjugatum Bergius, PASCO), wild buckwheat (Polygonum convolvulus L., POLCO) and stinging nettle (Urtica dioica L., URTDI).
(§4) Treatments consisted of tank mixes of commercially available formulations of fluoroxypyr-meptyl ester (Starane® 200, Starane® 250, Starane® Ultra) and glyphosate (Roundup® isopropylammonium salt, Glizmax, Gliz) applied in water. The application volume varied from location to location but was from 100 to 450 liters per hectare (L/ha). Application was made using a precision gas backpack sprayer at pressures ranging from 150 to 300 kPA pressure using 2 to 4 m booms utilizing 4 to 8 flat fan nozzles to broadcast the treatments to the weeds and to the soil.
(§5) The treated and control plots were rated blind at various intervals after application. Ratings were based on Percent (%) Visual weed control, where 0 corresponds to no control and 100 corresponds to complete control.
(§6) Colby's equation was used to determine the herbicidal effects expected from the mixtures (Colby, S. R. Calculation of the synergistic and antagonistic response of herbicide combinations. Weeds 1967 15, 20-22).
(§7) The following equation was used to calculate the expected activity of mixtures containing two active ingredients, A and B:
(§8) A=observed efficacy of active ingredient A at the same concentration as used in the mixture;
(§9) B=observed efficacy of active ingredient B at the same concentration as used in the mixture.

[4] = test system: Polygonum convolvulus L. (POLCO, wild buckwheat); experiment: Postemergence field weed control, POLCO; conditions: 14 DAA
Method: as §1, §3, §4, §5, §6, §7, §8, §9

[5] = test system: Convolvus arvensis (CONAR, field bindweed); experiment: Postemergence field weed control, CONAR; conditions: 59 DAA
Method: as §1, §3, §4, §5, §6, §7, §8, §9

[6] = test system: Calopogonium mucunoides (CLOMU, calopo); experiment: Postemergence field weed control, CLOMU; conditions: 70 DAA
Method: as §1, §2

[7] = test system: Malva neglecta Wallr. (MALNE, common mallow); experiment: Postemergence field weed control, MALNE; conditions: 14 DAA
Method: as §1, §2

[8] = test system: Ottochloa nodosa (OTTNO, slender panicgrass); experiment: Postemergence field weed control, OTTNO; conditions: 70 DAA
Method: as §1, §2

[9] = test system: Conyza canadensis (L.) Cronq. (ERICA, horseweed); experiment: Postemergence field weed control, ERICA; conditions: 43 DAA
Method: as §1, §3, §4
The treated and control plots were rated blind at various intervals after application. […]

[10] = test system: Anagallis arvensis L. (ANGAR, scarlet pimpernel); experiment: Postemergence field weed control, ANGAR; conditions: 14 DAA
Method: as §1, §2

[11] = test system: Kochia scoparia (L.) Schrad. (KCHSC, kochia); experiment: Postemergence field weed control, KCHSC; conditions: 36 DAA
Method: as §1, §2

[12] = test system: Urtica dioica L. (URTDI, stinging nettle); experiment: Postemergence field weed control, URTDI; conditions: 28 DAA
Method: as §1, §2

[13] = test system: Axonopus compressus (AXOCO, tropical carpetgrass); experiment: Postemergence field weed control, AXOCO; conditions: 70 DAA
Method: as §1, §2

[14] = test system: Paspalum conjugatum Bergius (PASCO, sour paspalum); experiment: Postemergence field weed control, PASCO; conditions: 70 DAA
Method: as §1, §2

[15] = fluroxypyr-meptyl 200 grams ae/ha alone
[16] = fluroxypyr-meptyl 200 grams ae/ha alone, Table 3
[17] = fluroxypyr-meptyl 400 grams ae/ha alone, Table 4
[18] = fluroxypyr-meptyl 53 gae/ha alone
[19] = glyphosate-isopropylammonium 500 gae/ha alone
[20] = glyphosate-isopropylammonium 1000 grams ae/ha alone

CCCCCCC(C)OC(=O)COc1nc(F)c(Cl)c(N)c1Cl (stereo not drawn) [Fluroxypyr-meptyl, fluoroxypyr-meptyl]
MIKCO Obs (Observed weed control) ([1]; fluroxypyr-meptyl 50 grams ae/ha alone): 42% | COMBE Obs (Observed weed control) [2, 15]: 36% | CIRAR Obs (Observed weed control) ([3]; fluroxypyr-meptyl 300 grams ae/ha alone, 59 DAA): 3% | CIRAR Obs (Observed weed control) ([3]; fluroxypyr-meptyl 400 grams ae/ha alone, 14 DAA): 7% | POLCO Obs (Observed weed control) [4, 16]: 52% | POLCO Obs (Observed weed control) ([4]; fluroxypyr-meptyl 400 grams ae/ha alone, Table 3): 68% | POLCO Obs (Observed weed control) [4, 17]: 60% | CONAR Obs (Observed weed control) [5, 16]: 47% | CONAR Obs (Observed weed control) ([5]; fluroxypyr-meptyl 300 grams ae/ha alone, Table 4): 50% | CONAR Obs (Observed weed control) [5, 17]: 48% | CLOMU Obs (Observed weed control) [6, 18]: 69% | MALNE Obs (Observed weed control) [7, 15]: 48% | OTTNO Obs (Observed weed control) [8, 18]: 0% | ERICA Obs (Observed weed control) ([9]; fluroxypyr-meptyl 140 grams ae/ha alone): 4% | ANGAR Obs (Observed weed control) ([10]; fluroxypyr-meptyl 400 grams ae/ha alone): 0% | KCHSC Obs (Observed weed control) ([11]; fluroxypyr-meptyl 67 grams ae/ha alone): 48% | URTDI Obs (Observed weed control) [12, 15]: 10% | AXOCO Obs (Observed weed control) [13, 18]: 0% | PASCO Obs (Observed weed control) [14, 18]: 0%

O=C(O)CNCP(=O)(O)O [Glyphosate-isopropylammonium, glyphosate-isopropylammonium]
MIKCO Obs (Observed weed control) ([1]; glyphosate-isopropylammonium 360 grams ae/ha alone): 58% | COMBE Obs (Observed weed control) ([2]; glyphosate-isopropylammonium 710 grams ae/ha alone): 43% | CIRAR Obs (Observed weed control) ([3]; glyphosate-isopropylammonium 1000 grams ae/ha alone, 14 DAA): 58% | CIRAR Obs (Observed weed control) ([3]; glyphosate-isopropylammonium 1000 grams ae/ha alone, 59 DAA): 58% | POLCO Obs (Observed weed control) ([4]; glyphosate-isopropylammonium 1000 grams ae/ha alone, Table 3): 25% | POLCO Obs (Observed weed control) ([4]; glyphosate-isopropylammonium 1000 grams ae/ha alone, Table 4): 25% | POLCO Obs (Observed weed control) ([4]; glyphosate-isopropylammonium 1500 grams ae/ha alone, Table 3): 60% | CONAR Obs (Observed weed control) ([5]; glyphosate-isopropylammonium 1500 grams ae/ha alone, Table 4): 43% | CONAR Obs (Observed weed control) ([5]; glyphosate-isopropylammonium 2000 grams ae/ha alone, Table 3): 55% | CONAR Obs (Observed weed control) ([5]; glyphosate-isopropylammonium 2000 grams ae/ha alone, Table 4): 55% | CLOMU Obs (Observed weed control) [6, 19]: 64% | MALNE Obs (Observed weed control) [7, 20]: 14% | OTTNO Obs (Observed weed control) [8, 19]: 59% | ERICA Obs (Observed weed control) ([9]; glyphosate-isopropylammonium 560 grams ae/ha alone): 18% | ERICA Obs (Observed weed control) ([9]; glyphosate-isopropylammonium 840 grams ae/ha alone): 73% | ANGAR Obs (Observed weed control) [10, 20]: 43% | KCHSC Obs (Observed weed control) ([11]; glyphosate-isopropylammonium 280 grams ae/ha alone): 23% | URTDI Obs (Observed weed control) ([12]; glyphosate-isopropylammonium 1100 grams ae/ha alone): 24% | AXOCO Obs (Observed weed control) [13, 19]: 59% | PASCO Obs (Observed weed control) [14, 19]: 59%

— US20130157852A1, “HERBICIDAL COMPOSITION CONTAINING FLUROXYPYR AND GLYPHOSATE” (DOW AGROSCIENCES LLC, priority 2011, published 2013)
